PMC6556873, “Rapid Covalent-Probe Discovery by Electrophile-Fragment Screening” (Journal of the American Chemical Society, 2019)
Where two headings read alike, the source gives them in different places.

Experiments:
PCAF = target: T1, PCAF (Homo sapiens, UniProt Q92831); design: Intact protein LC/MS covalent labelling, fragments in pools of five, 200 uM each, 4 °C; details: 24 h, 4 °C, pool of five; 200 µM; covalent
T1 construct: gene KAT2B

BSA = target: T2, BSA (Bos taurus, UniProt P02769); design: Intact protein LC/MS covalent labelling, fragments in pools of five, 200 uM each, 4 °C; details: 24 h, 4 °C, pool of five; 200 µM; covalent
T2 construct: gene ALB
T2 sequence (P02769 whole entry, the tested form may be a part): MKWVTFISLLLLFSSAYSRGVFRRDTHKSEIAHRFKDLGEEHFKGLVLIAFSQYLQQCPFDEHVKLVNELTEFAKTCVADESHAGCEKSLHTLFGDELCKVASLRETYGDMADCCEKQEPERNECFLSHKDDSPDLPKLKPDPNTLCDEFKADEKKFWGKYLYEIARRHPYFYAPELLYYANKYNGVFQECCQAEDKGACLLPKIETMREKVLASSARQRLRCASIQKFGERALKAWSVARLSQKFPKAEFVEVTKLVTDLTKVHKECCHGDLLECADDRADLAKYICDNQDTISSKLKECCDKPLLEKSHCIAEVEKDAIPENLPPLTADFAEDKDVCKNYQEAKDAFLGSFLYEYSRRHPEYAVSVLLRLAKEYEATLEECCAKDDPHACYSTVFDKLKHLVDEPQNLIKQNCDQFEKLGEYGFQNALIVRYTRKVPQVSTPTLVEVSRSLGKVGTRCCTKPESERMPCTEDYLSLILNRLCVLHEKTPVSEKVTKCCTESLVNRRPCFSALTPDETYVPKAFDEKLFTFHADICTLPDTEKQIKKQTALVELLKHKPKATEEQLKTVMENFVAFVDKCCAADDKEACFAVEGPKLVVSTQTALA

OTUB2 (OTUB2A) = target: T3, OTUB2 (OTUB2A) (Homo sapiens, UniProt Q96DC9); design: Intact protein LC/MS covalent labelling, fragments in pools of five, 200 uM each, 4 °C; details: 24 h, 4 °C, pool of five; 200 µM; covalent
T3 construct: full length residues 1-234, E. coli BL21(DE3)-R3, His tag removed by TEV, construct 27312 Da
T3 sequence (Q96DC9 1-234): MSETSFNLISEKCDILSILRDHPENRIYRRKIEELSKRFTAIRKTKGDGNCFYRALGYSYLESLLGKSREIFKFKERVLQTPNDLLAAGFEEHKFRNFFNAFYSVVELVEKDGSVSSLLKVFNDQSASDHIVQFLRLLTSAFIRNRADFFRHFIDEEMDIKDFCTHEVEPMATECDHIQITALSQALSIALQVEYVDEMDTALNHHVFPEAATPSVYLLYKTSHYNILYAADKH

NUDT7 = target: T4, NUDT7 (Homo sapiens, UniProt P0C024); design: Intact protein LC/MS covalent labelling, fragments in pools of five, 200 uM each, 4 °C; details: 24 h, 4 °C, pool of five; 200 µM; covalent
T4 construct: residues 14-235, E. coli, pNIC28-Bsa4, N-terminal His6 tag removed by TEV, construct 26672 Da
T4 sequence (P0C024 14-235): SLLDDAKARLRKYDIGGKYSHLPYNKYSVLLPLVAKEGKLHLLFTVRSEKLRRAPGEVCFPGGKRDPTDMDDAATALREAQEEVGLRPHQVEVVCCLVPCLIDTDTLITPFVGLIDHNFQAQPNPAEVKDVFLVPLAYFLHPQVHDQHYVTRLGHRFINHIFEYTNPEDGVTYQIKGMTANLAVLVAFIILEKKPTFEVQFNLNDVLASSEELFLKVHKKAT

in vitro [1] = assay: in vitro; design: species or system HB2, HEK293; details: human, ccd841 cells
in vitro [2] = assay: in vitro; design: species or system CCD841, HEK293; details: human, hb2 cells, read-out: HB-2 Cells Viability (%)
in vitro [3] = assay: in vitro; design: species or system HB2, CCD841; details: human, hek293 cells

T1 sequence (Q92831 whole entry, the tested form may be a part): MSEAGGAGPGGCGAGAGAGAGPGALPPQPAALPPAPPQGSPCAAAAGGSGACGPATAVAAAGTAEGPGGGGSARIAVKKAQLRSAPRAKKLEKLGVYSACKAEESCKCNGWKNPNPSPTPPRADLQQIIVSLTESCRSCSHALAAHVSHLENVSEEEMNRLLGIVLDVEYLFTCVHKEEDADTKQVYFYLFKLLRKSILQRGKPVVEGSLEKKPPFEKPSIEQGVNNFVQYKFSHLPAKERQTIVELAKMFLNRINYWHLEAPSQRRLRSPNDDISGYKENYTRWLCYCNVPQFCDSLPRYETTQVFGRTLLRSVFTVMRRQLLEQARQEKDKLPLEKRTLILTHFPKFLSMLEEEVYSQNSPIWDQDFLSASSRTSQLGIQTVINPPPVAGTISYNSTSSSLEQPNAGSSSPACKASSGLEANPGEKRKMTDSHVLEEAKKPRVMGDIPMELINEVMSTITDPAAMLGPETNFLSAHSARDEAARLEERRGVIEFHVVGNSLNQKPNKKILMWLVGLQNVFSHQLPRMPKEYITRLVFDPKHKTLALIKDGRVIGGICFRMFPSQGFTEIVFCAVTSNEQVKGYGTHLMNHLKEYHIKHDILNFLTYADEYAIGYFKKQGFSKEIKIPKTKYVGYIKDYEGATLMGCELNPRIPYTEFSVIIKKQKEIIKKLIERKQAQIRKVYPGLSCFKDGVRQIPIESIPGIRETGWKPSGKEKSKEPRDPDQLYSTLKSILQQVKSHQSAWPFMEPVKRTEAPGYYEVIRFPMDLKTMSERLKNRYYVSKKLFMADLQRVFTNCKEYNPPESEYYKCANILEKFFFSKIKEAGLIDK

Compound | PCAF (PCAF) | BSA (BSA) | OTUB2 (OTUB2 (OTUB2A)) | NUDT7 (NUDT7) | viability at 48 h, 10 µM (in vitro [1]) [%] | viability at 48 h, 10 µM (in vitro [2]) [%] | viability at 48 h, 10 µM (in vitro [3]) [%]
O=C(CCl)NCc1ccc2c(c1)OCO2 [PCM-0102578] | 0 | 0 | 0.16 | 0 | 99.9 | 97.5 | 85.6
O=C(CCl)NC1CCSC1=O (stereo not drawn) [PCM-0103062] | 0 | 0 | 0 | 0 | 88.2 | 97.6 | 90.7
O=C(CCl)N1N=C(c2cccs2)CC1c1ccco1 (stereo not drawn) [PCM-0102295] | 0 | 0 | 0.06 | 0.46 | 7.9 | 5 | 1.4
CCC1(C)NC(=O)N(NC(=O)CCl)C1=O (stereo not drawn) [PCM-0102205] | 0 | 0 | 0 | 0 | 85.3 | 96.9 | 88
Cc1ccc(C)c(S(=O)(=O)N2CCN(C(=O)CCl)CC2)c1 [PCM-0102353] | 0 | 0 | 0.06 | 0.19 | 37.7 | 2.1 | 3.2
CC(NC(=O)CCl)c1ccc2ccccc2c1 (stereo not drawn) [PCM-0102350] | 0 | 0 | 0.47 | 0.31 | 70.6 | 66 | 58.5
CCN(C(=O)CCl)C1=CCCCC1 [PCM-0103084] | 0 | 0.19 | 0 | 0 | 97.8 | 106 | 120
N#Cc1ccc(NC(=O)CCl)cc1 [PCM-0102875] | 0 | 0 | 0.08 | 0.14 | 46 | 36.6 | 4.3
CN(Cc1cc(Cl)cc(Cl)c1)C(=O)CCl [PCM-0102678] | 0 | 0 | 0 | 0.45 | 22 | 8.3 | 22
O=C(CCl)N(C1CC1)C1CCS(=O)(=O)C1 (stereo not drawn) [PCM-0102832] | 0 | 0 | 0.43 | 0 | 85.1 | 88.7 | 67.9
C=CC(=O)NCc1ccc(F)cc1 [PCM-0102839] | 0 | 0 | 0 | 0 | 111 | 105 | 87.3
CC(C)n1nccc1NC(=O)CCl.Cl [PCM-0102472] | 0 | 0 | 0 | 0 | 107 | 92.7 | 101
CN(C(=O)CCl)C1=CCCC1 [PCM-0102869] | 0 | 0 | 0 | 0 | 110 | 111 | 101
O=C(CCl)Nc1nc(-c2ccc(F)cc2)cs1 [PCM-0102809] | 0 | 0 | 0.21 | 0.37 | 63.1 | 5.1 | 1.7
O=C(CCl)Nc1cc(C(F)(F)F)ccc1N1CCOCC1 [PCM-0102741] | 0 | 0 | 0.1 | 0 | 111 | 102 | 118
CCC1CN(C(=O)CCl)CCO1 (stereo not drawn) [PCM-0102436] | 0 | 0 | 0 | 0 | 79.3 | 85.5 | 71.4
O=C(CCl)Nc1ccccc1[N+](=O)[O-] [PCM-0102232] | 0 | 0 | 0.2 | 0.24 | 81.8 | 75.4 | 73.9
C=CC(=O)NCc1cccc(C(F)(F)F)c1 [PCM-0102825] | 0 | 0 | 0 | 0 | 107 | 97.4 | 82.3
C=CC(=O)NCC1CCOCO1 (stereo not drawn) [PCM-0102648] | 0 | 0.2 | 0 | 0 | 104 | 102 | 88.8
O=C(CCl)N1CCN(c2ccccc2[N+](=O)[O-])CC1 [PCM-0103016] | 0 | 0.16 | 0.09 | 0.27 | 61.4 | 8.7 | 13.4
C=CC(=O)NC1CCc2cnn(C(C)C)c2C1 (stereo not drawn) [PCM-0102487] | 0 | 0 | 0 | 0 | 120 | 95.5 | 97.7
Cc1ccc(S(C)(=O)=O)cc1NC(=O)CCl [PCM-0102858] | 0 | 0 | 0 | 0 | 66.6 | 58.6 | 19.2
O=C(CCl)N1CCCC(c2nc3ccccc3s2)C1 (stereo not drawn) [PCM-0102425] | 0 | 0 | 0 | 0.28 | 3.5 | 4.1 | 9.4
Cc1ccc(C)c(NC(=O)CCl)c1 [PCM-0102398] | 0 | 0 | 0 | 0 | 62.3 | 59.4 | 51.5
